Experimental data: US6737383B1, “Herbicidal oxadiazolidines” (priority 1999, dated 2004)

Legend:
wild oat = assay: Test B pre/postemergence wild oat; format: in vivo, Avena fatua
Method in brief: (§1)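 Herbicidal effect was estimated by eye on a ten-point control scale after plants spent twelve to sixteen days in a greenhouse following soil or foliar treatment. Foliar sprays targeted plants at one to four leaves; all doses were formulated in a non-phytotoxic solvent with surfactant.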

crabgrass = assay: Test B pre/postemergence crabgrass; format: in vivo, Digitaria sanguinalis
Method in brief: as §1

rice = assay: Test B flood test rice; format: in vivo, Oryza sativa
Method in brief: (§2)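 Plants were grown to the 2-leaf stage before treatment with test chemical, then held in a greenhouse for twelve to sixteen days. Injury was visually rated against untreated controls on a 0–10 scale, where 0 is no effect and 10 is complete control.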

surinam grass = assay: Test B pre/postemergence surinam grass; format: in vivo, Brachiaria decumbens
Method in brief: as §1

blackgrass = assay: Test B pre/postemergence blackgrass; format: in vivo, Alopecurus myosuroides
Method in brief: as §1

velvetleaf = assay: Test B pre/postemergence velvetleaf; format: in vivo, Abutilon theophrasti
Method in brief: as §1

duck salad = assay: Test B flood test duck salad; format: in vivo, Heteranthera limosa
Method in brief: as §2

purple nutsedge = assay: Test B pre/postemergence purple nutsedge; format: in vivo, Cyperus rotundus
Method in brief: as §1

giant foxtail = assay: Test B pre/postemergence giant foxtail; format: in vivo, Setaria faberii
Method in brief: as §1

rape = assay: Test B pre/postemergence rape; format: in vivo, Brassica napus
Method in brief: as §1

wheat = assay: Test B pre/postemergence wheat; format: in vivo, Triticum aestivum
Method in brief: as §1

morningglory = assay: Test B pre/postemergence morningglory; format: in vivo, Ipomoea hederacea
Method in brief: as §1

bedstraw = assay: Test B pre/postemergence bedstraw; format: in vivo, Galium aparine; settings: Preemergence
Method in brief: as §1

corn = assay: Test B pre/postemergence corn; format: in vivo, Zea mays
Method in brief: as §1

soybean = assay: Test B pre/postemergence soybean; format: in vivo, Glycine max
Method in brief: as §1

pigweed = assay: Test B pre/postemergence pigweed; format: in vivo, Amaranthus retroflexus
Method in brief: as §1

[1] = Postemergence, Rate 125 g/ha, scale of 0 to 10 where 0 is no effect and 10 is complete control
[2] = Preemergence, Rate 62 g/ha, scale 0 to 10 (0 no effect, 10 complete control)
[3] = Preemergence, Rate 125 g/ha, 0 is no effect, 10 is complete control
[4] = Preemergence, Rate 250 g/ha, scale 0 to 10, 0 is no effect, 10 is complete control
[5] = Preemergence, Rate 500 g/ha, scale 0 to 10 (0 no effect, 10 complete control)
[6] = Rate 62 g/ha, Postemergence, scale of 0 to 10 where 0 is no effect and 10 is complete control
[7] = Rate 250 g/ha, Postemergence, scale 0 to 10, 0 is no effect, 10 is complete control
[8] = Rate 500 g/ha, Postemergence, scale 0 to 10, 0 no effect, 10 complete control
[9] = Postemergence (flood test species), Rate 125 g/ha, scale of 0 to 10 where 0 is no effect and 10 is complete control
[10] = Rate 62 g/ha, Postemergence section, flood test species, scale of 0 to 10 where 0 is no effect and 10 is complete control
[11] = Rate 250 g/ha, Postemergence (flood test), scale 0 to 10, 0 is no effect, 10 is complete control
[12] = Rate 250 g/ha, headed Pre-emergence (flood test species), scale 0 to 10 (0 no effect, 10 complete control)
[13] = Rate 500 g/ha, headed Pre-emergence (flood test species), scale 0 to 10 (0 no effect, 10 complete control)
[14] = Rate 500 g/ha, listed under Postemergence (flood test species), scale 0 to 10, 0 no effect, 10 complete control
[15] = Rate 1000 g/ha, Pre-emergence (as headed), scale 0 to 10
[16] = Rate 2000 g/ha, Pre-emergence (as headed), scale 0 to 10

With `CC(C)N(C(=O)n1oc(=O)n(-c2cnn(C)c2)c1=O)c1ccccc1` [Compound 123] the “Wild oats plant response rating” value (wild oat; [1]) was 0, the “Wild oats plant response rating” value (wild oat; [2]) was 0 and the “Wild oats plant response rating (0 to 10 scale)” value (wild oat; [3]) was 2. The “Wild oats plant response rating” value (wild oat; [4]) was 6, the “Wild oats plant response rating” value (wild oat; [5]) was 6 and the “Wild oats plant response rating” value (wild oat; [6]) was 0. The “Plant response rating, Wild oats” value (wild oat; [7]) was 0, the “Wild oats plant response rating” value (wild oat; [8]) was 2 and the “Crabgrass plant response rating” value (crabgrass; [1]) was 4. For the same molecule, the “Crabgrass plant response rating” value (crabgrass; [2]) was 4, the “Crabgrass plant response rating (0 to 10 scale)” value (crabgrass; [3]) was 5 and the “Crabgrass plant response rating” value (crabgrass; [4]) was 5. The “Crabgrass plant response rating” value (crabgrass; [5]) was 7, the “Crabgrass plant response rating” value (crabgrass; [6]) was 0 and the “Plant response rating, Crabgrass” value (crabgrass; [7]) was 8. The “Crabgrass plant response rating” value (crabgrass; [8]) was 9, the “Rice plant response rating” value (rice; [9]) was 0 and the “Rice plant response rating” value (rice; [10]) was 0. For the same molecule, the “Plant response rating, Rice” value (rice; [11]) was 0, the “Rice plant response rating” value (rice; [12]) was 0 and the “Plant response rating, Rice” value (rice; [13]) was 0. The “Rice plant response rating” value (rice; [14]) was 0, the “Rice plant response rating” value (rice; [15]) was 0 and the “Rice plant response rating” value (rice; [16]) was 0. The “B. signalgrass plant response rating” value (surinam grass; Postemergence, Rate 62 g/ha, scale 0 to 10, 0 is no effect, 10 is complete control) was 0, the “B. signalgrass plant response rating” value (surinam grass; [1]) was 0 and the “B. signalgrass plant response rating” value (surinam grass; [2]) was 0. For the same molecule, the “B. signalgrass plant response rating (0 to 10 scale)” value (surinam grass; [3]) was 0, the “B. signalgrass plant response rating” value (surinam grass; [4]) was 0 and the “B. signalgrass plant response rating” value (surinam grass; [5]) was 2. The “Plant response rating, B. signalgrass” value (surinam grass; [7]) was 3, the “B. signalgrass plant response rating” value (surinam grass; Rate 500 g/ha, Postemergence, scale of 0 to 10 where 0 is no effect and 10 is complete control) was 5 and the “Blackgrass plant response rating” value (blackgrass; [1]) was 6. The “Blackgrass plant response rating” value (blackgrass; [2]) was 0, the “Blackgrass plant response rating (0 to 10 scale)” value (blackgrass; [3]) was 0 and the “Blackgrass plant response rating” value (blackgrass; [4]) was 4. For the same molecule, the “Blackgrass plant response rating” value (blackgrass; [5]) was 7, the “Blackgrass plant response rating” value (blackgrass; [6]) was 2 and the “Plant response rating, Blackgrass” value (blackgrass; [7]) was 6. For the same molecule, the “Blackgrass plant response rating” value (blackgrass; [8]) was 7, the “Velvetleaf plant response rating” value (velvetleaf; [1]) was 0 and the “Velvetleaf plant response rating” value (velvetleaf; [2]) was 0. For the same molecule, the “Velvetleaf plant response rating (0 to 10 scale)” value (velvetleaf; [3]) was 0, the “Velvetleaf plant response rating” value (velvetleaf; [4]) was 3 and the “Velvetleaf plant response rating” value (velvetleaf; [5]) was 6. The “Velvetleaf plant response rating” value (velvetleaf; [6]) was 0, the “Plant response rating, Velvetleaf” value (velvetleaf; [7]) was 0 and the “Ducksalad plant response rating” value (duck salad; [9]) was 0. For the same molecule, the “Ducksalad plant response rating” value (duck salad; [10]) was 0, the “Plant response rating, Ducksalad” value (duck salad; [11]) was 0 and the “Ducksalad plant response rating” value (duck salad; [12]) was 0. For the same molecule, the “Plant response rating, Ducksalad” value (duck salad; [13]) was 0, the “Ducksalad plant response rating” value (duck salad; [14]) was 0 and the “Ducksalad plant response rating” value (duck salad; [15]) was 0. The “Ducksalad plant response rating” value (duck salad; [16]) was 0, the “Nutsedge plant response rating” value (purple nutsedge; [1]) was 0 and the “Nutsedge plant response rating” value (purple nutsedge; [2]) was 0. The “Nutsedge plant response rating (0 to 10 scale)” value (purple nutsedge; [3]) was 0, the “Nutsedge plant response rating” value (purple nutsedge; [4]) was 0 and the “Nutsedge plant response rating” value (purple nutsedge; [5]) was 0. For the same molecule, the “Nutsedge plant response rating” value (purple nutsedge; [6]) was 0, the “Plant response rating, Nutsedge” value (purple nutsedge; [7]) was 0 and the “Nutsedge plant response rating” value (purple nutsedge; [8]) was 0. The “Giant foxtail plant response rating” value (giant foxtail; [1]) was 5, the “Giant foxtail plant response rating” value (giant foxtail; [2]) was 7 and the “Giant foxtail plant response rating (0 to 10 scale)” value (giant foxtail; [3]) was 9. The “Giant foxtail plant response rating” value (giant foxtail; [4]) was 9, the “Giant foxtail plant response rating” value (giant foxtail; [5]) was 10 and the “Giant foxtail plant response rating” value (giant foxtail; [6]) was 3. The “Plant response rating, Giant foxtail” value (giant foxtail; [7]) was 8, the “Giant foxtail plant response rating” value (giant foxtail; [8]) was 9 and the “Rape plant response rating” value (rape; [1]) was 0. For the same molecule, the “Rape plant response rating” value (rape; [2]) was 0, the “Rape plant response rating (0 to 10 scale)” value (rape; [3]) was 0 and the “Rape plant response rating” value (rape; [4]) was 0. For the same molecule, the “Rape plant response rating” value (rape; [5]) was 0, the “Rape plant response rating” value (rape; [6]) was 0 and the “Plant response rating, Rape” value (rape; [7]) was 0. For the same molecule, the “Rape plant response rating” value (rape; [8]) was 2, the “Wheat plant response rating” value (wheat; [1]) was 1 and the “Wheat plant response rating” value (wheat; [2]) was 0. The “Wheat plant response rating (0 to 10 scale)” value (wheat; [3]) was 0, the “Wheat plant response rating” value (wheat; [4]) was 5 and the “Wheat plant response rating” value (wheat; [5]) was 7. For the same molecule, the “Wheat plant response rating” value (wheat; [6]) was 0, the “Plant response rating, Wheat” value (wheat; [7]) was 1 and the “Wheat plant response rating” value (wheat; [8]) was 4. The “Morningglory plant response rating” value (morningglory; [1]) was 9, the “Morningglory plant response rating” value (morningglory; [2]) was 0 and the “Morningglory plant response rating (0 to 10 scale)” value (morningglory; [3]) was 0. The “Morningglory plant response rating” value (morningglory; [4]) was 0, the “Morningglory plant response rating” value (morningglory; [5]) was 0 and the “Morningglory plant response rating” value (morningglory; [6]) was 8. The “Plant response rating, Morningglory” value (morningglory; [7]) was 10, the “Morningglory plant response rating” value (morningglory; [8]) was 10 and the “Bedstraw plant response rating” value (bedstraw; Rate 62 g/ha, scale 0 to 10 (0 no effect, 10 complete control)) was 0. For the same molecule, the “Bedstraw plant response rating (0 to 10 scale)” value (bedstraw; Rate 125 g/ha, 0 is no effect, 10 is complete control) was 0, the “Bedstraw plant response rating” value (bedstraw; Rate 250 g/ha, scale 0 to 10, 0 is no effect, 10 is complete control) was 0 and the “Bedstraw plant response rating” value (bedstraw; Rate 500 g/ha, scale 0 to 10 (0 no effect, 10 complete control)) was 0. The “Corn plant response rating” value (corn; [1]) was 0, the “Corn plant response rating” value (corn; [2]) was 0 and the “Corn plant response rating (0 to 10 scale)” value (corn; [3]) was 0. For the same molecule, the “Corn plant response rating” value (corn; [4]) was 0, the “Corn plant response rating” value (corn; [5]) was 0 and the “Corn plant response rating” value (corn; [6]) was 0. The “Plant response rating, Corn” value (corn; [7]) was 0, the “Corn plant response rating” value (corn; [8]) was 0 and the “Soybean plant response rating” value (soybean; [1]) was 4. For the same molecule, the “Soybean plant response rating” value (soybean; [2]) was 0, the “Soybean plant response rating (0 to 10 scale)” value (soybean; [3]) was 0 and the “Soybean plant response rating” value (soybean; [4]) was 0. The “Soybean plant response rating” value (soybean; [5]) was 0, the “Soybean plant response rating” value (soybean; [6]) was 2 and the “Plant response rating, Soybean” value (soybean; [7]) was 4. For the same molecule, the “Soybean plant response rating” value (soybean; [8]) was 4, the “Redroot pigweed plant response rating” value (pigweed; [2]) was 0 and the “Redroot pigweed plant response rating (0 to 10 scale)” value (pigweed; [3]) was 4. For the same molecule, the “Redroot pigweed plant response rating” value (pigweed; [4]) was 5, the “Redroot pigweed plant response rating” value (pigweed; [5]) was 9 and the “Redroot pigweed plant response rating” value (pigweed; [6]) was 0. The “Plant response rating, Redroot pigweed” value (pigweed; [7]) was 2 and the “Redroot pigweed plant response rating” value (pigweed; [8]) was 2.
